The results in this text go back to patent publication US10264787B1, “Natural mosquito larvicide” (BIOVECBLOK, s.r.l., priority 2017, dated 2019).

SMILES strings stand for the structures.

The test system of the data set is Larvae and pupae of Anopheles gambiae, An. stephensi, Aedes albopictus and Ae. aegypti. The note with it: after 24 hours post application; 0.03 g tyrosine in 200 ml breeding water; first to fourth-instar larvae.

Protocol: The pre-adult developmental stages were grown under these conditions: 28° C., 80% relative humidity and a photoperiod of 12 h light followed by 12 h dark.
Mosquito larvicidal/pupicidal tests were carried out based on the WHO standardized procedures and guidelines for larvicidal assay.
For each mosquito species, 24 hours before the assay to reduce the larval stress, we prepared 6 trays [15 cm (width), 15 cm (length) and 6.5 cm (deep)] one for each tested products, containing 200 ml of breeding water which includes 40 mosquito larvae (first, second, third, fourth-instars) and 10 pupae. Each assay comprised of 3 replicates.
Mortality was recorded every 30 minutes from beginning for the pre-adult developmental stages (larvae and pupe). […] The dead larvae and pupae were recorded, and the average percentage mortality was calculated.

On to `N[C@@H](Cc1ccc(O)cc1)C(=O)O` [tyrosine], for which the larval mortality entry is recorded as “about 60%”.
